Laboratory results published in the supplement of paper PMC10307832.

How the values were obtained:
Assay in all cases: relative viability (nuclei count vs DMSO), 5 days (fraction); higher = more cells survive
[1] = compound: COC1=CC=C(C=C1)CN2C=CC3=C2C=C(C=C3)C(=O)NO + O=C(c1cc(Cc2n[nH]c(=O)c3ccccc23)ccc1F)N1CCN(C(=O)C2CC2)CC1 [Olaparib] (partner 8 µM)
Procedure, shortened: (§1)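 Lung cancer cell lines, seeded in 1536-well plates, were treated the following day by pin tool with a single drug or with five library-drug doses (not always all listed) in √10 steps on top of a fixed anchor-drug dose. Cells were fixed and nuclei stained in one step after 5 days, and nuclei were counted. Relative viability is the nuclei count for treated wells divided by that for vehicle wells, reported as medians of duplicate plates.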

[2] = compound: COC1=CC=C(C=C1)CN2C=CC3=C2C=C(C=C3)C(=O)NO + CC(C)C[C@H](NC(=O)[C@H](Cc1ccccc1)NC(=O)c1cnccn1)B(O)O [Bortezomib] (partner 0.002 µM)
Procedure, shortened: as §1

[3] = compound: COC1=CC=C(C=C1)CN2C=CC3=C2C=C(C=C3)C(=O)NO + Cc1cc(Nc2cc(N3CCN(C)CC3)nc(Sc3ccc(NC(=O)C4CC4)cc3)n2)n[nH]1 [Tozasertib] (partner 0.1 µM)
Procedure, shortened: as §1

[4] = compound: COC1=CC=C(C=C1)CN2C=CC3=C2C=C(C=C3)C(=O)NO + CS(=O)(=O)CCNCc1ccc(-c2ccc3ncnc(Nc4ccc(OCc5cccc(F)c5)c(Cl)c4)c3c2)o1 [Lapatinib] (partner 2 µM)
Procedure, shortened: as §1

LU99A
relative viability ([1]; first compound 0.253 µM): 0.277
relative viability ([1]; first compound 0.8 µM): 0.262
relative viability ([1]; first compound 2.53 µM): 0.252
relative viability ([1]; first compound 8 µM): 0.26
relative viability ([2]; first compound 0.253 µM): 1.13
relative viability ([2]; first compound 0.8 µM): 1.14
relative viability ([2]; first compound 2.53 µM): 1.06
relative viability ([2]; first compound 8 µM): 0.938
relative viability ([3]; first compound 0.253 µM): 0.254
relative viability ([3]; first compound 0.8 µM): 0.298
relative viability ([3]; first compound 2.53 µM): 0.277
relative viability ([3]; first compound 8 µM): 0.298
relative viability ([4]; first compound 0.253 µM): 0.92
relative viability ([4]; first compound 0.8 µM): 0.961
relative viability ([4]; first compound 2.53 µM): 0.957
relative viability ([4]; first compound 8 µM): 0.891

NCI-H1755
relative viability ([1]; first compound 0.08 µM): 0.77
relative viability ([1]; first compound 0.253 µM): 0.89
relative viability ([1]; first compound 0.8 µM): 0.831
relative viability ([1]; first compound 2.53 µM): 0.955
relative viability ([1]; first compound 8 µM): 0.867
relative viability ([2]; first compound 0.08 µM): 0.91
relative viability ([2]; first compound 0.253 µM): 0.992
relative viability ([2]; first compound 0.8 µM): 0.949
relative viability ([2]; first compound 2.53 µM): 0.992
relative viability ([2]; first compound 8 µM): 0.97
relative viability ([3]; first compound 0.08 µM): 0.512
relative viability ([3]; first compound 0.253 µM): 0.688
relative viability ([3]; first compound 0.8 µM): 0.619
relative viability ([3]; first compound 2.53 µM): 0.584
relative viability ([3]; first compound 8 µM): 0.524
relative viability ([4]; first compound 0.08 µM): 0.715
relative viability ([4]; first compound 0.253 µM): 1.07
relative viability ([4]; first compound 0.8 µM): 1
relative viability ([4]; first compound 2.53 µM): 1.01
relative viability ([4]; first compound 8 µM): 1.02

LXF-289
relative viability ([1]; first compound 0.253 µM): 1.05
relative viability ([1]; first compound 0.8 µM): 1.11
relative viability ([1]; first compound 2.53 µM): 1.11
relative viability ([1]; first compound 8 µM): 1.11
relative viability ([2]; first compound 0.08 µM): 0.699
relative viability ([2]; first compound 0.253 µM): 1
relative viability ([2]; first compound 0.8 µM): 0.956
relative viability ([2]; first compound 2.53 µM): 0.964
relative viability ([2]; first compound 8 µM): 0.931
relative viability ([3]; first compound 0.253 µM): 0.231
relative viability ([3]; first compound 0.8 µM): 0.164
relative viability ([3]; first compound 2.53 µM): 0.195
relative viability ([3]; first compound 8 µM): 0.182
relative viability ([4]; first compound 0.08 µM): 0.301
relative viability ([4]; first compound 0.253 µM): 0.921
relative viability ([4]; first compound 0.8 µM): 0.878
relative viability ([4]; first compound 2.53 µM): 0.926
relative viability ([4]; first compound 8 µM): 0.883

NCI-H460
relative viability ([1]; first compound 0.08 µM): 0.426
relative viability ([1]; first compound 0.253 µM): 0.457
relative viability ([1]; first compound 0.8 µM): 0.401
relative viability ([1]; first compound 2.53 µM): 0.465
relative viability ([1]; first compound 8 µM): 0.397
relative viability ([2]; first compound 0.08 µM): 1.02
relative viability ([2]; first compound 0.253 µM): 0.984
relative viability ([2]; first compound 0.8 µM): 1.04
relative viability ([2]; first compound 2.53 µM): 1.14
relative viability ([2]; first compound 8 µM): 1.01
relative viability ([3]; first compound 0.08 µM): 0.309
relative viability ([3]; first compound 0.253 µM): 0.381
relative viability ([3]; first compound 0.8 µM): 0.422
relative viability ([3]; first compound 2.53 µM): 0.411
relative viability ([3]; first compound 8 µM): 0.195
relative viability ([4]; first compound 0.08 µM): 0.118
relative viability ([4]; first compound 0.253 µM): 1.04
relative viability ([4]; first compound 0.8 µM): 0.953
relative viability ([4]; first compound 2.53 µM): 0.907
relative viability ([4]; first compound 8 µM): 0.931
